According to patent publication US20210371782A1, “METHODS FOR OPTICAL MICROPATTERNING OF HYDROGELS AND USES THEREOF” (President and Fellows of Harvard College, priority 2016, published 2021):

Test: Solubility in water of riboflavin types
Type: physicochemical
Settings: compared with other types of riboflavin

solubility in water: most soluble in water
Structure (SMILES): Cc1cc2nc3c(=O)[nH]c(=O)nc-3n(C[C@H](O)[C@H](O)[C@H](O)COP(=O)(O)O)c2cc1C [riboflavin 5′ phosphate]
